From ChEMBL document CHEMBL1255475, “Mutant prevention concentrations of four carbapenems against gram-negative rods” (2010)
Converted amounts (≈) assume the structure as drawn.

Columns and labels:
Acinetobacter baumannii [1] = test: Antibacterial activity against Acinetobacter baumannii A908 after 24 hrs by agar dilution method; format: functional; conditions: A908, 24 h
Acinetobacter baumannii [2] = test: Antibacterial activity against Acinetobacter baumannii A898 after 24 hrs by agar dilution method; format: functional; conditions: A898, 24 h
Acinetobacter baumannii [3] = test: Antibacterial activity against Acinetobacter baumannii A885 after 24 hrs by agar dilution method; format: functional; conditions: A885, 24 h
Escherichia coli [4] = test: Antibacterial activity against beta-lactamase-negative Escherichia coli E424 after 24 hrs by agar dilution method; conditions: E424, 24 h
Escherichia coli [5] = test: Antibacterial activity against beta-lactamase-positive ESBL-positive Escherichia coli E446 after 24 hrs by agar dilution method; conditions: E446, 24 h
Escherichia coli [6] = test: Antibacterial activity against beta-lactamase-positive ESBL-positive Escherichia coli E452 after 24 hrs by agar dilution method; conditions: E452, 24 h
Escherichia coli [7] = test: Antibacterial activity against beta-lactamase-positive ESBL-negative Escherichia coli E430 after 24 hrs by agar dilution method; conditions: E430, 24 h
Escherichia coli [8] = test: Antibacterial activity against beta-lactamase-positive ESBL-positive Escherichia coli E465 after 24 hrs by agar dilution method; conditions: E465, 24 h
Escherichia coli [9] = test: Antibacterial activity against beta-lactamase-positive ESBL-negative Escherichia coli E483 after 24 hrs by agar dilution method; conditions: E483, 24 h
Escherichia coli [10] = test: Antibacterial activity against beta-lactamase-positive ESBL-negative Escherichia coli E484 after 24 hrs by agar dilution method; format: functional; conditions: E484, 24 h
Klebsiella pneumoniae [11] = test: Antibacterial activity against beta-lactamase-negative Klebsiella pneumoniae E357 after 24 hrs by agar dilution method; format: functional; conditions: E357, 24 h
Klebsiella pneumoniae [12] = test: Antibacterial activity against beta-lactamase-negative Klebsiella pneumoniae E358 after 24 hrs by agar dilution method; format: functional; conditions: E358, 24 h
Klebsiella pneumoniae [13] = test: Antibacterial activity against beta-lactamase-negative Klebsiella pneumoniae E361 after 24 hrs by agar dilution method; format: functional; conditions: E361, 24 h
Klebsiella pneumoniae [14] = test: Antibacterial activity against beta-lactamase-positive ESBL-negative Klebsiella pneumoniae E472 after 24 hrs by agar dilution method; format: functional; conditions: E472, 24 h
Klebsiella pneumoniae [15] = test: Antibacterial activity against beta-lactamase-positive ESBL-negative Klebsiella pneumoniae E473 after 24 hrs by agar dilution method; format: functional; conditions: E473, 24 h
Klebsiella pneumoniae [16] = test: Antibacterial activity against beta-lactamase-positive ESBL-positive Klebsiella pneumoniae E478 after 24 hrs by agar dilution method; format: functional; conditions: E478, 24 h
Klebsiella pneumoniae [17] = test: Antibacterial activity against beta-lactamase-negative Klebsiella pneumoniae E417 after 24 hrs by agar dilution method; format: functional; conditions: E417, 24 h
Klebsiella pneumoniae [18] = test: Antibacterial activity against beta-lactamase-positive ESBL-negative Klebsiella pneumoniae E507 after 24 hrs by agar dilution method; format: functional; conditions: E507, 24 h
Pseudomonas aeruginosa [19] = test: Antibacterial activity against Pseudomonas aeruginosa P369 after 24 hrs by agar dilution method; conditions: P369, 24 h
Pseudomonas aeruginosa [20] = test: Antibacterial activity against Pseudomonas aeruginosa P320 after 24 hrs by agar dilution method; conditions: P320, 24 h
Pseudomonas aeruginosa [21] = test: Antibacterial activity against Pseudomonas aeruginosa P322 after 24 hrs by agar dilution method; conditions: P322, 24 h
Pseudomonas aeruginosa [22] = test: Antibacterial activity against Pseudomonas aeruginosa P353 after 24 hrs by agar dilution method; format: functional; conditions: P353, 24 h
Pseudomonas aeruginosa [23] = test: Antibacterial activity against Pseudomonas aeruginosa P365 after 24 hrs by agar dilution method; conditions: P365, 24 h
Pseudomonas aeruginosa [24] = test: Antibacterial activity against Pseudomonas aeruginosa P349 after 24 hrs by agar dilution method; conditions: P349, 24 h
Pseudomonas aeruginosa [25] = test: Antibacterial activity against Pseudomonas aeruginosa P363 after 24 hrs by agar dilution method; conditions: P363, 24 h
Pseudomonas aeruginosa [26] = test: Antibacterial activity against Pseudomonas aeruginosa P358 after 24 hrs by agar dilution method; format: functional; conditions: P358, 24 h
Pseudomonas aeruginosa [27] = test: Antibacterial activity against Pseudomonas aeruginosa P326 after 24 hrs by agar dilution method; conditions: P326, 24 h
Acinetobacter baumannii [28] = test: Antibacterial activity against Acinetobacter baumannii A850 after 24 hrs by agar dilution method; format: functional; conditions: A850, 24 h
Acinetobacter baumannii [29] = test: Antibacterial activity against Acinetobacter baumannii A911 after 24 hrs by agar dilution method; format: functional; conditions: A911, 24 h
Acinetobacter baumannii [30] = test: Antibacterial activity against Acinetobacter baumannii A912 after 24 hrs by agar dilution method; format: functional; conditions: A912, 24 h
Escherichia coli [31] = test: Ratio of mutant prevention concentration to minimum Inhibitory concentration for beta-lactamase-positive ESBL-negative Escherichia coli E437; format: functional
Escherichia coli [32] = test: Ratio of mutant prevention concentration to minimum Inhibitory concentration for beta-lactamase-positive ESBL-negative Escherichia coli E430; format: functional
Escherichia coli [33] = test: Ratio of mutant prevention concentration to minimum Inhibitory concentration for beta-lactamase-positive ESBL-positive Escherichia coli E459; format: functional
Klebsiella pneumoniae [34] = test: Ratio of mutant prevention concentration to minimum Inhibitory concentration for beta-lactamase-negative Klebsiella pneumoniae E358; format: functional
Klebsiella pneumoniae [35] = test: Ratio of mutant prevention concentration to minimum Inhibitory concentration for beta-lactamase-negative Klebsiella pneumoniae E359; format: functional
Klebsiella pneumoniae [36] = test: Ratio of mutant prevention concentration to minimum Inhibitory concentration for beta-lactamase-negative Klebsiella pneumoniae E361; format: functional
Klebsiella pneumoniae [37] = test: Ratio of mutant prevention concentration to minimum Inhibitory concentration for beta-lactamase-positive ESBL-positive Klebsiella pneumoniae E478; format: functional
Klebsiella pneumoniae [38] = test: Ratio of mutant prevention concentration to minimum Inhibitory concentration for beta-lactamase-negative Klebsiella pneumoniae E417; format: functional
Pseudomonas aeruginosa [39] = test: Antibacterial activity against Pseudomonas aeruginosa P356 incubated up to 7 days by agar dilution method; format: functional; conditions: P356, 168 h
Pseudomonas aeruginosa [40] = test: Antibacterial activity against Pseudomonas aeruginosa P338 incubated up to 7 days by agar dilution method; format: functional; conditions: P338, 168 h
Pseudomonas aeruginosa [41] = test: Antibacterial activity against Pseudomonas aeruginosa P341 incubated up to 7 days by agar dilution method; format: functional; conditions: P341, 168 h
Acinetobacter baumannii [42] = test: Antibacterial activity against Acinetobacter baumannii A890 incubated up to 7 days by agar dilution method; format: functional; conditions: A890, 168 h
Acinetobacter baumannii [43] = test: Antibacterial activity against Acinetobacter baumannii A865 incubated for 24 h by agar dilution method; conditions: A865, 24 h
Acinetobacter baumannii [44] = test: Antibacterial activity against Acinetobacter baumannii A912 incubated for 24 h by agar dilution method; conditions: A912, 24 h
Pseudomonas aeruginosa [45] = test: Ratio of mutant prevention concentration to minimum Inhibitory concentration for Pseudomonas aeruginosa P356; format: functional
Pseudomonas aeruginosa [46] = test: Ratio of mutant prevention concentration to minimum Inhibitory concentration for Pseudomonas aeruginosa P322; format: functional
Pseudomonas aeruginosa [47] = test: Ratio of mutant prevention concentration to minimum Inhibitory concentration for Pseudomonas aeruginosa P349; format: functional
Pseudomonas aeruginosa [48] = test: Ratio of mutant prevention concentration to minimum Inhibitory concentration for Pseudomonas aeruginosa P341; format: functional
Pseudomonas aeruginosa [49] = test: Ratio of mutant prevention concentration to minimum Inhibitory concentration for Pseudomonas aeruginosa P358; format: functional
Pseudomonas aeruginosa [50] = test: Ratio of mutant prevention concentration to minimum Inhibitory concentration for Pseudomonas aeruginosa P326; format: functional
Acinetobacter baumannii [51] = test: Ratio of mutant prevention concentration to minimum Inhibitory concentration for Acinetobacter baumannii A894; format: functional
Acinetobacter baumannii [52] = test: Ratio of mutant prevention concentration to minimum Inhibitory concentration for Acinetobacter baumannii A903; format: functional

SMILES: C[C@@H](O)[C@H]1C(=O)N2C(C(=O)O)=C(SCCNC=N)C[C@H]12 [IMIPENEM ANHYDROUS]
- MIC (Acinetobacter baumannii [1]): 0.25 µg/mL (≈ 0.835 µM)
- MIC (Acinetobacter baumannii [2]): 1 µg/mL (≈ 3.34 µM)
- MIC (Acinetobacter baumannii [3]): 2 µg/mL (≈ 6.68 µM)
- MIC (Escherichia coli [4]): 0.125 µg/mL (≈ 0.418 µM)
- MIC (Escherichia coli [5]): 0.25 µg/mL (≈ 0.835 µM)
- MIC (Escherichia coli [6]): 0.125 µg/mL (≈ 0.418 µM)
- MIC (Escherichia coli [7]): 0.5 µg/mL (≈ 1.67 µM)
- MIC (Escherichia coli [8]): 0.25 µg/mL (≈ 0.835 µM)
- MIC (Escherichia coli [9]): 1 µg/mL (≈ 3.34 µM)
- MIC (Escherichia coli [10]): 4 µg/mL (≈ 13.4 µM)
- MIC (Klebsiella pneumoniae [11]): 0.25 µg/mL (≈ 0.835 µM)
- MIC (Klebsiella pneumoniae [12]): 0.25 µg/mL (≈ 0.835 µM)
- MIC (Klebsiella pneumoniae [13]): 0.5 µg/mL (≈ 1.67 µM)
- MIC (Klebsiella pneumoniae [14]): 8 µg/mL (≈ 26.7 µM)
- MIC (Klebsiella pneumoniae [15]): 4 µg/mL (≈ 13.4 µM)
- MIC (Klebsiella pneumoniae [16]): 4 µg/mL (≈ 13.4 µM)
- MIC (Klebsiella pneumoniae [17]): 0.5 µg/mL (≈ 1.67 µM)
- MIC (Klebsiella pneumoniae [18]): 2 µg/mL (≈ 6.68 µM)
- MIC (Pseudomonas aeruginosa [19]): 2 µg/mL (≈ 6.68 µM)
- MIC (Pseudomonas aeruginosa [20]): 2 µg/mL (≈ 6.68 µM)
- MIC (Pseudomonas aeruginosa [21]): 4 µg/mL (≈ 13.4 µM)
- MIC (Pseudomonas aeruginosa [22]): 8 µg/mL (≈ 26.7 µM)
- MIC (Pseudomonas aeruginosa [23]): 2 µg/mL (≈ 6.68 µM)
- MIC (Pseudomonas aeruginosa [24]): 2 µg/mL (≈ 6.68 µM)
- MIC (Pseudomonas aeruginosa [25]): 2 µg/mL (≈ 6.68 µM)
- MIC (Pseudomonas aeruginosa [26]): 32 µg/mL (≈ 107 µM)
- MIC (Pseudomonas aeruginosa [27]): 16 µg/mL (≈ 53.4 µM)
- MIC (Acinetobacter baumannii [28]): 4 µg/mL (≈ 13.4 µM)
- MIC (Acinetobacter baumannii [29]): 2 µg/mL (≈ 6.68 µM)
- MIC (Acinetobacter baumannii [30]): 2 µg/mL (≈ 6.68 µM)

SMILES: C[C@@H](O)[C@H]1C(=O)N2C(C(=O)O)=C(S[C@@H]3CN[C@H](C(=O)Nc4cccc(C(=O)O)c4)C3)[C@H](C)[C@H]12
- Ratio (Escherichia coli [31]): 2
- Ratio (Escherichia coli [32]): >8
- Ratio (Escherichia coli [33]): 2
- Ratio (Klebsiella pneumoniae [34]): 4
- Ratio (Klebsiella pneumoniae [35]): 2
- Ratio (Klebsiella pneumoniae [36]): 4
- Ratio (Klebsiella pneumoniae [37]): 2
- Ratio (Klebsiella pneumoniae [38]): 2

SMILES: C[C@@H](O)[C@H]1C(=O)N2C(C(=O)O)=C(S[C@@H]3CN[C@H](C(=O)N(C)C)C3)[C@H](C)[C@H]12 [MEROPENEM]
- MIC (Pseudomonas aeruginosa [39]): 0.5 µg/mL (≈ 1.3 µM)
- MIC (Pseudomonas aeruginosa [40]): 0.25 µg/mL (≈ 0.652 µM)
- MIC (Pseudomonas aeruginosa [41]): 0.5 µg/mL (≈ 1.3 µM)
- MIC (Acinetobacter baumannii [42]): 0.5 µg/mL (≈ 1.3 µM)
- MIC (Acinetobacter baumannii [43]): 8 µg/mL (≈ 20.9 µM)
- MIC (Acinetobacter baumannii [44]): 2 µg/mL (≈ 5.22 µM)

SMILES: C[C@@H](O)[C@H]1C(=O)N2C(C(=O)O)=C(S[C@@H]3CN[C@H](CNS(N)(=O)=O)C3)[C@H](C)[C@H]12 [DORIPENEM]
- MIC (Pseudomonas aeruginosa [39]): 0.25 µg/mL (≈ 0.595 µM)
- MIC (Pseudomonas aeruginosa [40]): 0.25 µg/mL (≈ 0.595 µM)
- Ratio (Pseudomonas aeruginosa [45]): >16
- Ratio (Pseudomonas aeruginosa [46]): 8
- Ratio (Pseudomonas aeruginosa [47]): 16
- Ratio (Pseudomonas aeruginosa [48]): 16
- Ratio (Pseudomonas aeruginosa [49]): 8
- Ratio (Pseudomonas aeruginosa [50]): 4
- Ratio (Acinetobacter baumannii [51]): 4
- Ratio (Acinetobacter baumannii [52]): 4
- Ratio (Escherichia coli [31]): 2
- Ratio (Escherichia coli [32]): 4
- Ratio (Escherichia coli [33]): 4
- Ratio (Klebsiella pneumoniae [34]): 2
- Ratio (Klebsiella pneumoniae [35]): 2
- Ratio (Klebsiella pneumoniae [36]): 2
- Ratio (Klebsiella pneumoniae [37]): >16
- Ratio (Klebsiella pneumoniae [38]): 2
- MIC (Pseudomonas aeruginosa [41]): 0.5 µg/mL (≈ 1.19 µM)
- MIC (Acinetobacter baumannii [42]): 0.25 µg/mL (≈ 0.595 µM)
- MIC (Acinetobacter baumannii [43]): 8 µg/mL (≈ 19 µM)
- MIC (Acinetobacter baumannii [44]): 4 µg/mL (≈ 9.51 µM)
